From US6375927B1, “Methods of radiotherapy using biomodulators” (priority 1991, dated 2002)

What was measured:
B-16 melanoma cells [1] = experiment: Tissue localization of otherwise non-specific imaging agent (Tc-99m HSA) after pokeweed mitogen; assay type: in vivo, mouse; details: 10 μg pokeweed mitogen four hours before 99mTc-HSA
Method: A mouse ([…]) was injected with B-16 melanoma cells in accordance with Example 1. 7 days later, 10 μg of pokeweed mitogen was injected into the mouse. Four hours later ^99mTc-human serum albumin (HSA) was injected. The resultant posterior gamma camera image is obtained of the tumor grown in the mouse. Comparison with the control image.

canine glioma tumors = experiment: NMR imaging of tumor using pokeweed mitogen; effect on T1; assay type: in vivo, nude rats
Method: Three nude rats were implanted with canine glioma tumors in their left flank. […] NMR imaging was performed as above at 4 hours post injection.

[2] = tested on: xenografts of human teratocarcinoma tumors; experiment: Imaging tumors with 99mTc-labeled TNF-α and biomodulators; assay type: in vivo, Balb/c mice; details: pretreatment 15 hours earlier
Method: Balb/c mice bearing xenografts of human teratocarcinoma tumors induced by subcutaneous injections of live tumor cells 8 days previously were injected with 10 μg of Ukrain, pokeweed mitogen or 10K units of interferon. 15 hours later, they were injected i.v. with 10 μCi of ^99mTc-labeled TNF-α labeled using the ascorbic acid reduction method of M. L. Thakur. M. L. Thakur et al., “Tc-99m Labeled Monoclonal Antibodies: Evaluation of Reducing Agents,” Internat. J. Nucl. Med. Biol. 18, 227-233 (1991). M. L. Thakur et al., “Tc-99m Labeled Monoclonal Antibodies for Immunoscintigraphy: Simplified Preparation and Evaluation,” J. Immunol. Methods 137, 217-225 (1991). Mice were imaged at 1.5, 4 and 24 hours post injection of the ^99m-labeled TNF-α and sacrificed for tissue distribution studies.

B-16 melanoma cells [3] = experiment: Effect of a biomodulator on the biodistribution of a non-specific agent (I-125 BSA); assay type: in vivo, mice; details: 2 hours (FIG. 9) and 4 hours (FIG. 10)
Source text: The results of biodistribution studies of mice injected with 6×10^5 B-16 melanoma cells 7 days prior to the injection of Tc-99m labeled pokeweed (Tc-99m PWM) and I-125 bovine serum albumin (I-125 BSA) or Tc-99m labeled human serum albumin (Tc-99m HSA) and I-125 bovine serum albumin (I-125 BSA) .

[4] = treatment with unlabeled PWM, FIG. 6
[5] = 4 and 24 hours post injection of TNF-α
[6] = 1.5 hours post injection of TNF-α

Substance | gamma camera image of tumor with 99mTc-HSA versus control image without pokeweed mitogen (B-16 melanoma cells [1]) | Visualization of the tumors (NMR imaging) (canine glioma tumors; 4 hours post injection, 7 days post-implantation) | effect on T1 of the treated tissue image (canine glioma tumors; NMR image, 4 hours post injection) | T1 measured on the tumor (canine glioma tumors; [4]) | T1 of normal muscle tissue (canine glioma tumors; [4]) | tumor to muscle ratios of radioisotope uptake (99mTc-labeled TNF-α) compared to mice not receiving biomodulators or interferon [2, 5] | tumor to muscle ratios of radioisotope uptake (99mTc-labeled TNF-α) compared to mice not receiving biomodulators or interferon [2, 6] | distribution of I-125 BSA depending on co-injected agent (Tc-99m PWM or Tc-99m HSA) (B-16 melanoma cells [3])
pokeweed mitogen | significant image enhancement | observed as bright areas | lowers T1 | enhanced tenfold | remained at baseline levels | not at 4 and 24 hours | enhanced | –
I-125 BSA: I-125 bovine serum albumin, non-specific agent | – | – | – | – | – | – | – | significant differences
interferon | – | – | – | – | – | not at 4 and 24 hours | enhanced | –
